# In US20250388550A1, “SALTS OF AN ANTIOXIDANT AND CRYSTALLINE FORMS THEREOF” (Mironova Labs, Inc., priority 2022, published 2025):
# Assays:
# physchem = type: physicochemical; conditions: 60 °C, organic solvent or mixture
# Procedure: The approximate solubility of the L-Ergothioneine Form A/B mixture in various solvents was determined (Table 2).
# [1] = DVS moisture sorption/desorption isotherm; type: physicochemical
# Procedure: Moisture sorption/desorption data were collected on a VTI SGA-100 Vapor Sorption Analyzer. Samples were not dried prior to analysis. Sorption and desorption data were collected over a range from 5% to 95% RH at 10% RH increments under a dry air purge. The equilibrium criterion used for analysis was less than 0.0100% weight change in 5 minutes with a maximum equilibration time of 3 hours with a 2-minute data logging interval. Data were not corrected for the initial moisture content of the samples.
# [2] = Slurry interconversion experiments of Forms A and C; type: physicochemical; conditions: for Relative thermodynamic stability of the anhydrate forms: Form A versus Form C, at the temperatures evaluated; for Interconversion result (form): EtOH, 75° C.
# Procedure: The choice of solvent affects the kinetics of polymorph conversion and not the thermodynamic relationship between polymorphic forms (Gu, CH., Young, V. Jr., Grant, DJ. J. Pharm. Sci 2001; 90 (11): 1878-1890).
# Slurry interconversion experiments in ethanol (at 75° C.) and methanol (at room temperature) were still attempted to confirm the thermodynamic relationship between Forms A and C (Table 18).
# [3] = Observation of isolated solid on removal from nitrogen stream; type: physicochemical; conditions: upon removal from the nitrogen stream
# Procedure: L-Ergothioneine calcium chloride Material A was obtained by heating a slurry of 173.9 mg of L-Ergothioneine Form A/B in 1 mL of water to 65° C. A faint turbid solution was afforded with the addition of 110.5 mg of calcium chloride to the slurry. The sample was refrigerated for 3 days and became clear. The clear solution was evaporated to dryness under nitrogen.
# [4] = Trituration of Form C in aqueous methanol below the critical water activity; type: physicochemical; conditions: 10:90 water/MeOH, aw 0.29, RT, 5 d
# Procedure: Although the dihydrate of L-Ergothioneine can form in the presence of water, aqueous methanol mixtures were utilized to enhance solubility. To avoid the dihydrate, the aqueous mixtures were prepared below the critical water activity of its formation. Form C was triturated in the aqueous mixtures and monitored for conversion to Form A by XRPD after 5 days (Table 19).
# [5] = Physical stability assessment at controlled relative humidity, form by XRPD; type: physicochemical; conditions: RT, 22 days
# Source text: Consistent with the DVS result, the critical water activity between the anhydrate and the dihydrate was tentatively determined to fall between 0.76 and 0.85 aw, above which hydration to Form B Dihydrate will occur. This is also consistent with the physical stability assessment at 33, 75, and 95% RH for 22 days; Form A Anhydrate remained Form A below the critical water activity, while hydration to Form B Dihydrate occurred above (Table 16).
# (§1) The effect of relative humidity (RH) and water activity (aw) on the hydration state of L-Ergothioneine was investigated through both static exposure to different relative humidity (Table 17 and Table 18) and competitive water activity trituration experiments at room temperature (Table 20). The resulting solids were characterized by XRPD. These experiments were used to establish the relative humidity ranges for form stability of the thermodynamically stable anhydrate Form A and Form B Dihydrate. The critical water activity between the anhydrate and the dihydrate falls between 0.76 and 0.85 aw. This range is consistent with the DVS isotherms for both Forms A and C Anhydrate.
# [6] = Hygroscopicity inferred from TGA weight loss; type: physicochemical; conditions: weight loss likely volatilization of moisture
# Procedure: Thermogravimetric (TG) analyses were performed using a Mettler-Toledo TGA/DSC3+ analyzer. Temperature and enthalpy adjustments were performed using indium, tin, and zinc, and then verified with indium. The balance was verified with calcium oxalate. The sample was placed in an aluminum pan. The pan was hermetically sealed, the lid pierced, and the pan was then inserted into the TG furnace. A weighed aluminum pan configured as the sample pan was placed on the reference platform. The furnace was heated under nitrogen. Samples were analyzed from 25° C. to 350° C. at 10° C./min. Thermogravimetric analyses typically experience a period of equilibration at the start of each analysis, indicated by red parentheses on the thermograms. The starting temperature for relevant weight loss calculations is selected at a point beyond this region (typically above 35° C.) for accuracy. DSC analysis on this instrument is less sensitive than on the DSC3+ differential scanning calorimeter. Therefore, in certain embodiments, samples with sufficient solids were analyzed by both instruments and the TGA thermogram from Mettler-Toledo TGA/DSC3+ analyzer is reported below.
# The final endotherm with an onset of 234° C. is likely from concomitant melt and decomposition.
# Thermal decomposition (FIG. 20), which caused the material to expand out of the pan, was evident above this temperature.
# [7] = Source text: It cannot be predicted in advance whether a compound exists in one or more solid forms, or whether the properties of the solid form are advantageous for manufacturing and pharmaceutical formulation.
# [8] = Competitive water activity trituration experiments at room temperature; type: physicochemical
# Source text: Water activity is related to relative humidity in that RH %=aw×100. Therefore, it is possible to directly relate the stability of an anhydrous/hydrate system in slurry experiments to solid state stability.
# as §1
compound,measurement,setting,value
"C[N+](C)(C)C(Cc1cnc(S)[nH]1)C(=O)[O-] [L-Ergothioneine mixture, L-Ergothioneine]",solubility,physchem,< 2000 µg/mL
"C[N+](C)(C)C(Cc1cnc(S)[nH]1)C(=O)[O-] [L-Ergothioneine Form A Anhydrate, L-Ergothioneine, reference compound]",Hygroscopicity (DVS),[1]; above 85% RH,significant hygroscopicity
same,Hygroscopicity (DVS),"[1]; from 5 to 85% RH, listed as Form A",low hygroscopicity
same,Relative thermodynamic stability of the anhydrate forms,[2]; listed as Form A,more thermodynamically stable form
L-Ergothioneine calcium chloride,Deliquescence,[3],appeared to deliquesce
"C[N+](C)(C)C(Cc1cnc(S)[nH]1)C(=O)[O-] [L-Ergothioneine Form C Anhydrate, L-Ergothioneine]",Weight loss upon equilibration,[1]; at 5% RH,0.3 wt %
same,Water gain equivalent,[1]; at 95% RH,more than 1.5 mol/mol
same,Weight gain during sorption cycle,"[1]; at 95% RH, equilibrium not achieved",more than 10.9 wt %
same,Hygroscopicity (DVS),"[1]; from 5 to 85% RH, listed as Form C",limited hygroscopicity
same,"Complete desorption, equivalent loss of water",[1]; once reaching 5% RH,1 mol/mol
same,Recovered material after DVS by XRPD,[1]; post-DVS,"mixture of Form C Anhydrate, Form B Dihydrate, and another form"
same,Weight loss on desorption cycle,[1]; until reaching 75% RH,5.5 wt %
same,Weight gain during sorption cycle,[1]; up through 85% RH,approximately 0.9 wt %
same,Relative thermodynamic stability of the anhydrate forms,[2]; listed as Form C Anhydrate,thermodynamically metastable relative to Form A
same,Trituration result (form by XRPD),[4],A + C (minor)
same,"Physical stability, resulting form",[5]; 75% RH,Form C
same,"Physical stability, resulting form",[5]; 95% RH,Form B
"C[N+](C)(C)C(Cc1c[nH]c(=S)[nH]1)C(=O)O.O=S(=O)([O-])O [L-Ergothioneine Sulfate Form A, L-Ergothioneine sulfate]",Hygroscopicity suggested by TGA weight loss,[6],hygroscopic
"C[N+](C)(C)C(Cc1cnc(S)[nH]1)C(=O)[O-] [L-Ergothioneine Form B Dihydrate, L-Ergothioneine]","Physical stability, resulting form",[5]; 33% RH,partially dehydrate to a small quantity of both Forms A and C Anhydrates
same,"Physical stability, resulting form","[5]; 75% RH, listed as Form B Dihydrate",sustained
same,"Physical stability, resulting form","[5]; 95% RH, listed as Form B Dihydrate",sustained
C[N+](C)(C)C(Cc1cnc(S)[nH]1)C(=O)[O-] [L-Ergothioneine phosphoric acid],Hygroscopicity suggested by TGA weight loss,[6],hygroscopic
same,Solubility in polar protic solvents,[7],low solubility
"C[N+](C)(C)C(Cc1cnc(S)[nH]1)C(=O)[O-] [Forms A and C, L-Ergothioneine]",Interconversion result (form),[2]; 14 days,A + C
same,Interconversion result (form),[2]; 28 days,A + C (minor)
same,Water activity experiment result (form),"[8]; 15:85 water/MeOH, aw 0.39, RT, 8 d",B + A + C + anotherform
same,Water activity experiment result (form),"[8]; 20:80 water/MeOH, aw 0.47, RT, 8 d",B + A + C
same,Water activity experiment result (form),"[8]; 20:80 water/MeOH, aw 0.47, RT, 14 d",A + B
same,Water activity experiment result (form),"[8]; 70:30 water/MeOH, aw 0.86, RT, 13 d",B (PO)
same,Water activity experiment result (form),"[8]; solvent, aw and method cells empty, lines below 50:50 water/MeOH, aw 0.76",A + B + anotherform
